What was measured:
pigweed = assay: Test B pre/postemergence pigweed; assay type: in vivo, Amaranthus retroflexus
Outline: (§1)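 Test chemicals in a non-phytotoxic solvent mixture with surfactant were sprayed preemergence onto planted seeds and postemergence onto plants 2 to 18 cm tall (1- to 4-leaf stage). After twelve to sixteen days in a greenhouse, injury was visually rated against untreated controls from 0 (no effect) to 10 (complete control).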

wheat = assay: Test B pre/postemergence wheat; assay type: in vivo, Triticum aestivum
Outline: as §1

cocklebur = assay: Test B pre/postemergence cocklebur; assay type: in vivo, Xanthium strumarium
Outline: as §1

wild oat = assay: Test B pre/postemergence wild oat; assay type: in vivo, Avena fatua
Outline: as §1

bedstraw = assay: Test B pre/postemergence bedstraw; assay type: in vivo, Galium aparine
Outline: as §1

surinam grass = assay: Test B pre/postemergence surinam grass; assay type: in vivo, Brachiaria decumbens
Outline: as §1

smallflower flatsedge = assay: Test B flood test smallflower flatsedge; assay type: in vivo, Cyperus difformis
Outline: (§2)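 Each value is a visual injury score relative to controls, with 10 meaning complete control and 0 no effect. Evaluation took place twelve to sixteen days after the 2-leaf-stage plants were treated and kept in the greenhouse.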

purple nutsedge = assay: Test B pre/postemergence purple nutsedge; assay type: in vivo, Cyperus rotundus; conditions: Postemergence
Outline: as §1

crabgrass = assay: Test B pre/postemergence crabgrass; assay type: in vivo, Digitaria sanguinalis
Outline: as §1

sugar beet = assay: Test B pre/postemergence sugar beet; assay type: in vivo, Beta vulgaris
Outline: as §1

rape = assay: Test B pre/postemergence rape; assay type: in vivo, Brassica napus
Outline: as §1

soybean = assay: Test B pre/postemergence soybean; assay type: in vivo, Glycine max
Outline: as §1

giant foxtail = assay: Test B pre/postemergence giant foxtail; assay type: in vivo, Setaria faberii
Outline: as §1

duck salad = assay: Test B flood test duck salad; assay type: in vivo, Heteranthera limosa
Outline: as §2

bamyardgrass = assay: Test B flood test barnyardgrass; assay type: in vivo, Echinochloa crus-galli
Outline: as §2

rice = assay: Test B flood test rice; assay type: in vivo, Oryza sativa
Outline: as §2

velvetleaf = assay: Test B pre/postemergence velvetleaf; assay type: in vivo, Abutilon theophrasti
Outline: as §1

blackgrass = assay: Test B pre/postemergence blackgrass; assay type: in vivo, Alopecurus myosuroides
Outline: as §1

morningglory = assay: Test B pre/postemergence morningglory; assay type: in vivo, Ipomoea hederacea
Outline: as §1

corn = assay: Test B pre/postemergence corn; assay type: in vivo, Zea mays
Outline: as §1

[1] = Preemergence, Rate 62 g/ha, scale of 0 to 10 where 0 is no effect and 10 is complete control
[2] = Preemergence, Rate 250 g/ha, scale of 0 to 10 where 0 is no effect and 10 is complete control
[3] = Preemergence, Rate 500 g/ha, scale of 0 to 10 where 0 is no effect and 10 is complete control
[4] = Rate 125 g/ha, Preemergence, scale of 0 to 10 where 0 is no effect and 10 is complete control
[5] = Rate 500 g/ha, Postemergence, scale 0 to 10, 0 no effect, 10 complete control
[6] = Rate 62 g/ha, Postemergence, scale of 0 to 10 where 0 is no effect and 10 is complete control
[7] = Rate 125 g/ha, Postemergence, scale 0 to 10
[8] = Rate 62 g/ha, headed Pre-emergence (flood test species), scale 0 to 10 (0 no effect, 10 complete control)
[9] = Rate 125 g/ha, Pre-emergence, flood test species, scale 0 to 10 where 0 is no effect and 10 is complete control
[10] = Rate 250 g/ha, Pre-emergence, flood-test species, scale 0 to 10, 0 is no effect, 10 is complete control
[11] = Rate 500 g/ha, Pre-emergence, flood test species, scale 0 to 10 (0 no effect, 10 complete control)

Compound: CC(C)N(C(=O)n1oc(=O)n(CC2CC2)c1=O)c1ccc(F)cc1 [Compound 251]
- Redroot pigweed plant response rating (pigweed; [1]): 0
- Redroot pigweed plant response rating (pigweed; [2]): 10
- Plant response rating, Redroot pigweed (pigweed; [3]): 10
- Redroot pigweed plant response rating (pigweed; [4]): 5
- Plant response rating (0 to 10; 0 is no effect, 10 is complete control), Redroot pigweed (pigweed; Rate 250 g/ha, Postemergence): 2
- Redroot pigweed plant response rating (pigweed; [5]): 4
- Wheat plant response rating (wheat; [1]): 0
- Wheat plant response rating (wheat; [2]): 0
- Plant response rating, Wheat (wheat; [3]): 8
- Wheat plant response rating (wheat; [4]): 0
- Wheat plant response rating (wheat; [5]): 2
- Cocklebur plant response rating (cocklebur; [1]): 0
- Cocklebur plant response rating (cocklebur; [2]): 0
- Plant response rating, Cocklebur (cocklebur; [3]): 0
- Cocklebur plant response rating (cocklebur; [6]): 0
- Cocklebur plant response rating (cocklebur; [7]): 0
- Cocklebur plant response rating (cocklebur; [4]): 0
- Plant response rating (0 to 10; 0 is no effect, 10 is complete control), Cocklebur (cocklebur; Rate 250 g/ha, Postemergence): 0
- Cocklebur plant response rating (cocklebur; [5]): 3
- Wild oats plant response rating (wild oat; [1]): 0
- Wild oats plant response rating (wild oat; [2]): 8
- Plant response rating, Wild oats (wild oat; [3]): 9
- Wild oats plant response rating (wild oat; [4]): 6
- Wild oats plant response rating (wild oat; [5]): 0
- Bedstraw plant response rating (bedstraw; [1]): 0
- Bedstraw plant response rating (bedstraw; [2]): 10
- Plant response rating, Bedstraw (bedstraw; [3]): 10
- Bedstraw plant response rating (bedstraw; [6]): 2
- Bedstraw plant response rating (bedstraw; [7]): 6
- Bedstraw plant response rating (bedstraw; [4]): 0
- Plant response rating (0 to 10; 0 is no effect, 10 is complete control), Bedstraw (bedstraw; Rate 250 g/ha, Postemergence): 7
- Bedstraw plant response rating (bedstraw; [5]): 9
- B. signalgrass plant response rating (surinam grass; [1]): 2
- B. signalgrass plant response rating (surinam grass; [2]): 7
- Plant response rating, B. signalgrass (surinam grass; [3]): 9
- B. signalgrass plant response rating (surinam grass; [6]): 0
- B. signalgrass plant response rating (surinam grass; Rate 125 g/ha, Postemergence, scale 0 (no effect) to 10 (complete control)): 0
- B. signalgrass plant response rating (surinam grass; [4]): 3
- Plant response rating (0 to 10; 0 is no effect, 10 is complete control), B. signalgrass (surinam grass; Rate 250 g/ha, Postemergence): 0
- B. signalgrass plant response rating (surinam grass; [5]): 2
- S. Flatsedge plant response rating (smallflower flatsedge; [8]): 0
- S. Flatsedge plant response rating (smallflower flatsedge; [9]): 0
- S. Flatsedge plant response rating (smallflower flatsedge; [10]): 0
- S. Flatsedge plant response rating (smallflower flatsedge; [11]): 0
- Plant response rating (0 to 10; 0 is no effect, 10 is complete control), Nutsedge (purple nutsedge; Rate 250 g/ha): 0
- Nutsedge plant response rating (purple nutsedge; Rate 500 g/ha, scale 0 to 10, 0 no effect, 10 complete control): 0
- Crabgrass plant response rating (crabgrass; [1]): 3
- Crabgrass plant response rating (crabgrass; [2]): 9
- Plant response rating, Crabgrass (crabgrass; [3]): 10
- Crabgrass plant response rating (crabgrass; [4]): 7
- Plant response rating (0 to 10; 0 is no effect, 10 is complete control), Crabgrass (crabgrass; Rate 250 g/ha, Postemergence): 6
- Crabgrass plant response rating (crabgrass; [5]): 9
- Sugarbeets plant response rating (sugar beet; [1]): 6
- Sugarbeets plant response rating (sugar beet; [2]): 10
- Plant response rating, Sugarbeets (sugar beet; [3]): 10
- Sugarbeets plant response rating (sugar beet; [4]): 10
- Sugarbeets plant response rating (sugar beet; [5]): 2
- Rape plant response rating (rape; [1]): 0
- Rape plant response rating (rape; [2]): 9
- Plant response rating, Rape (rape; [3]): 10
- Rape plant response rating (rape; [4]): 9
- Plant response rating (0 to 10; 0 is no effect, 10 is complete control), Rape (rape; Rate 250 g/ha, Postemergence): 0
- Rape plant response rating (rape; [5]): 0
- Soybean plant response rating (soybean; [1]): 0
- Soybean plant response rating (soybean; [2]): 0
- Plant response rating, Soybean (soybean; [3]): 0
- Soybean plant response rating (soybean; [4]): 0
- Soybean plant response rating (soybean; [5]): 6
- Giant foxtail plant response rating (giant foxtail; [1]): 8
- Giant foxtail plant response rating (giant foxtail; [2]): 10
- Plant response rating, Giant foxtail (giant foxtail; [3]): 10
- Giant foxtail plant response rating (giant foxtail; [4]): 10
- Plant response rating (0 to 10; 0 is no effect, 10 is complete control), Giant foxtail (giant foxtail; Rate 250 g/ha, Postemergence): 7
- Giant foxtail plant response rating (giant foxtail; [5]): 8
- Ducksalad plant response rating (duck salad; [8]): 0
- Ducksalad plant response rating (duck salad; [9]): 0
- Ducksalad plant response rating (duck salad; [10]): 0
- Ducksalad plant response rating (duck salad; [11]): 0
- Barnyardgrass plant response rating (bamyardgrass; [8]): 0
- Barnyardgrass plant response rating (bamyardgrass; [9]): 0
- Barnyardgrass plant response rating (bamyardgrass; [10]): 0
- Barnyardgrass plant response rating (bamyardgrass; [11]): 0
- Rice plant response rating (rice; [8]): 0
- Rice plant response rating (rice; [9]): 0
- Rice plant response rating (rice; [10]): 0
- Rice plant response rating (rice; [11]): 0
- Velvetleaf plant response rating (velvetleaf; [1]): 0
- Velvetleaf plant response rating (velvetleaf; [2]): 5
- Plant response rating, Velvetleaf (velvetleaf; [3]): 7
- Velvetleaf plant response rating (velvetleaf; [4]): 4
- Velvetleaf plant response rating (velvetleaf; [5]): 0
- Blackgrass plant response rating (blackgrass; [1]): 6
- Blackgrass plant response rating (blackgrass; [2]): 9
- Plant response rating, Blackgrass (blackgrass; [3]): 10
- Blackgrass plant response rating (blackgrass; [6]): 0
- Blackgrass plant response rating (blackgrass; [7]): 4
- Blackgrass plant response rating (blackgrass; [4]): 8
- Plant response rating (0 to 10; 0 is no effect, 10 is complete control), Blackgrass (blackgrass; Rate 250 g/ha, Postemergence): 8
- Blackgrass plant response rating (blackgrass; [5]): 8
- Morningglory plant response rating (morningglory; [1]): 0
- Morningglory plant response rating (morningglory; [2]): 0
- Plant response rating, Morningglory (morningglory; [3]): 4
- Morningglory plant response rating (morningglory; [4]): 0
- Plant response rating (0 to 10; 0 is no effect, 10 is complete control), Morningglory (morningglory; Rate 250 g/ha, Postemergence): 7
- Morningglory plant response rating (morningglory; [5]): 9
- Corn plant response rating (corn; [1]): 0
- Corn plant response rating (corn; [2]): 0
- Plant response rating, Corn (corn; [3]): 5
- Corn plant response rating (corn; [6]): 0
- Corn plant response rating (corn; [7]): 0
- Corn plant response rating (corn; [4]): 0
- Plant response rating (0 to 10; 0 is no effect, 10 is complete control), Corn (corn; Rate 250 g/ha, Postemergence): 0
- Corn plant response rating (corn; [5]): 0

From US6737383B1, “Herbicidal oxadiazolidines” (priority 1999, dated 2004)
